Assay results published in ChEMBL document CHEMBL1201862, “PubChem BioAssay data set” (2004).
Activity calls are given as the source filed them.

Key:
[1] = biological target: T1, Corticotropin-releasing factor receptor 2/Corticotropin-releasing factor-binding protein (Homo sapiens, UniProt P24387+Q13324); experiment: activators of CRF receptor 2 with binding protein – uHTS hits, confirmation (AID 602473); type: functional; details: read-out: EC50_Mean
T1 sequence (Q13324 whole entry): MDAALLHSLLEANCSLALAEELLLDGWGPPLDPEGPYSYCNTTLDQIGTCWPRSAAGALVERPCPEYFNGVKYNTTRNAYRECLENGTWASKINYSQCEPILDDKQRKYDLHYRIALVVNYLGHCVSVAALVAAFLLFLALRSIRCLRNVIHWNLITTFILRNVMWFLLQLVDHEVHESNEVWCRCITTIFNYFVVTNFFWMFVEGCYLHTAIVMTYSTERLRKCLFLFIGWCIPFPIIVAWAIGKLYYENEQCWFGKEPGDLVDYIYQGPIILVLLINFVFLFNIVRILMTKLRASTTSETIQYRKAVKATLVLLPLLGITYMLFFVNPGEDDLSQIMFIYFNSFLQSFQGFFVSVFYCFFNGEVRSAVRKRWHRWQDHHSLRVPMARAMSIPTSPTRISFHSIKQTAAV
T1 sequence (P24387 whole entry): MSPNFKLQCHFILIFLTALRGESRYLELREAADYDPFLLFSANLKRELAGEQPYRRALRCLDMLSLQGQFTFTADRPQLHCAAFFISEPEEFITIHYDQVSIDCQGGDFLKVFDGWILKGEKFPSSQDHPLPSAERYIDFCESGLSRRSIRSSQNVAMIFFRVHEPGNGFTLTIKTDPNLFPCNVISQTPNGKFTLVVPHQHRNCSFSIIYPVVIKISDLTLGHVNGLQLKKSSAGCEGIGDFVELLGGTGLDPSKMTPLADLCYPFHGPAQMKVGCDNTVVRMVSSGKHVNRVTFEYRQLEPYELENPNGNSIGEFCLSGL

[2] = blockers of CRF-binding protein–CRF-R2 complex – cell-based, uHTS hits, 384-well, dose response (AID 651639); type: functional, Homo sapiens; details: read-out: IC50_Mean
[3] = biological target: T1, Corticotropin-releasing factor receptor 2/Corticotropin-releasing factor-binding protein; experiment: Dose Response confirmation of uHTS hits for small molecule antagonists of the CRF-binding protein and CRF-R2 receptor complex.; type: functional; details: read-out: IC50_Mean
[4] = toxicity toward HepG2 liver cells – cell-based, plate reader, cherry-pick, antagonist series, cytotoxicity control, dose response (AID 743416); type: functional
[5] = blockade of melanocortin 4 receptor signaling – cell-based, plate reader, cherry pick, counter-screen for LGR2 antagonist project, dose response (AID 743444); type: functional;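 also: transfected HEK 293 cells stimulated with alpha-MSH peptide; potency of inhibitors of the alpha-MSH evoked signal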
[6] = biological target: T2, DNA repair protein RAD52 homolog (Homo sapiens, UniProt P43351); type: functional, biochemical
T2 sequence (P43351 whole entry): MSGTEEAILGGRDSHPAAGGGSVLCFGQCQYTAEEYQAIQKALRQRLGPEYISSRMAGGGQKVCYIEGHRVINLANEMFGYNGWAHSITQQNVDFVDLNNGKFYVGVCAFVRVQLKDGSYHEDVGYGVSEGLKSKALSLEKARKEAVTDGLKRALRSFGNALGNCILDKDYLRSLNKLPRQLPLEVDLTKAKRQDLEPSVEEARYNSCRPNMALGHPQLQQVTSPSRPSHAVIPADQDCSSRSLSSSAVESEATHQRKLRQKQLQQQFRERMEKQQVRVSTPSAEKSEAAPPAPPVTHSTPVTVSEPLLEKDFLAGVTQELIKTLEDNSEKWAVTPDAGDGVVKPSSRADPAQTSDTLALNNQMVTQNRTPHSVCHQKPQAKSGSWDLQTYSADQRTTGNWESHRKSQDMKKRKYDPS

INS1 = experiment: INS-1E survival protection against cytokine death – cell-based, luminescence, retest, dose response (AID 449756); type: functional; details: Rattus norvegicus;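 also: cell death triggered by IL-1 beta plus TNF-alpha plus IFN-gamma mixture; protective hits raise ATP signal compared with cytokine alone wells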
[7] = biological target: SWI/SNF-related matrix-associated actin-dependent regulator of chromatin subfamily A member 2 (Homo sapiens, UniProt P51531); experiment: Luminescence-based cell-based high throughput dose response assay to identify activators of the function of SWI/SNF related, matrix associated, actin dependent regulator of chromatin, subfamily a, member 2 (SMARCA2, BRM).; type: functional
Sequence of SWI/SNF-related matrix-associated actin-dependent regulator of chromatin subfamily A member 2 (P51531 whole entry): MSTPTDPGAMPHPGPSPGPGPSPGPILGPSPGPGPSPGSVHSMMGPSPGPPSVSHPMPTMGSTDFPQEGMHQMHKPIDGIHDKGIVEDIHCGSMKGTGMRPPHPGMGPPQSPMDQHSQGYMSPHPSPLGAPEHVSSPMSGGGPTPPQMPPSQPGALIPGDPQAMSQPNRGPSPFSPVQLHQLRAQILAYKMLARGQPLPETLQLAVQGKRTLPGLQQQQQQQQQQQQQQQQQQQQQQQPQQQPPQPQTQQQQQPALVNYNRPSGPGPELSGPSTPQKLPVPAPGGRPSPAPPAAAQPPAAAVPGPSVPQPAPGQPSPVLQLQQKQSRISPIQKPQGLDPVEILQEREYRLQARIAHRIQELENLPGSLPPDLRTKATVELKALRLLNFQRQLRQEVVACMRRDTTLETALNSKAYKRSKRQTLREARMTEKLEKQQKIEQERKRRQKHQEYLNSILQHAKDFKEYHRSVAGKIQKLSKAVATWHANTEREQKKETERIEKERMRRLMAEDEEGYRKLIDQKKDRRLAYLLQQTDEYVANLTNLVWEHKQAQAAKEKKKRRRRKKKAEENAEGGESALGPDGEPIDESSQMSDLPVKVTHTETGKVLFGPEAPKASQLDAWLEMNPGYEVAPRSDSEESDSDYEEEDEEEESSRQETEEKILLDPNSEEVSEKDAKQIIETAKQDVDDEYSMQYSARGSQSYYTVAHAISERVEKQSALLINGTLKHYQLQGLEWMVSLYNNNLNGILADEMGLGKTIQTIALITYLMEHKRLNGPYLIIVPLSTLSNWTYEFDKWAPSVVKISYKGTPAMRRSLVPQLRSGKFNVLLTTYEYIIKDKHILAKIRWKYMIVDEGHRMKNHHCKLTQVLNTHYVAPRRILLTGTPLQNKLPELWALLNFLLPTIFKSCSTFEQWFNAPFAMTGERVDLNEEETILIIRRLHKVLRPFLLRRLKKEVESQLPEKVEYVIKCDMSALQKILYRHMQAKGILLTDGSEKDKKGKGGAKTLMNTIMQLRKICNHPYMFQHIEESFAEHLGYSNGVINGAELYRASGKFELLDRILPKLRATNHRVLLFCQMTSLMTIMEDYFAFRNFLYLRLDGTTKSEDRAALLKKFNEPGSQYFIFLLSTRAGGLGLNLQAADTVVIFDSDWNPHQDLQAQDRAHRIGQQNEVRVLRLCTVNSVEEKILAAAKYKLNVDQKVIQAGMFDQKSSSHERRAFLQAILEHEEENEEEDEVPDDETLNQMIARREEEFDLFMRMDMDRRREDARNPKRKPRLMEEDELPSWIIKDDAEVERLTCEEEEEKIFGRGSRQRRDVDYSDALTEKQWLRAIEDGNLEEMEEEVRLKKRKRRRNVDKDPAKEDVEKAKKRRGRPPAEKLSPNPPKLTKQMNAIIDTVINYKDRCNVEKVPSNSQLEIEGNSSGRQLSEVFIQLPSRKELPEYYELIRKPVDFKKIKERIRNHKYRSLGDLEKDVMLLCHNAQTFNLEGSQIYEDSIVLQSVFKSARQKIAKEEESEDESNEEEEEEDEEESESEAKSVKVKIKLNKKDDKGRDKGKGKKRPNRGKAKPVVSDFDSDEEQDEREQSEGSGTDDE

[8] = A549 cell cytotoxicity, dose response, cytotoxicity control, plate reader, cherry-pick, antagonist series (AID 743412); type: functional, cell-based
[9] = blockers of bursicon-stimulated LGR2 cAMP reporter – cell-based, HEK293, CRE-luciferase reporter, cherry pick, set 2, dose response (AID 743343); type: functional;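 also: transfected cells were stimulated with diluted bursicon conditioned medium after compound addition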
[10] = viability loss in HEK293 cells – cell-based, plate reader, cherry-picked samples, cytotoxicity control, dose response (AID 743446); type: functional
[11] = Counterscreen for activators of the function of SWI/SNF related, matrix associated, actin dependent regulator of chromatin, subfamily a, member 2 (SMARCA2, BRM): Luminescence-based cell-based high throughput dose response assay to identify non-selective compounds using the VP16 reporter assay.; type: functional
Melanocortin receptor 4 = Melanocortin receptor 4 (Homo sapiens, UniProt P32245); experiment: inhibitors of MC4R cAMP signaling – cell-based, TR-FRET, biased antagonists, dose response (AID 602298); type: functional;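 also: antagonist potency against agonist-stimulated cAMP production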
Sequence of Melanocortin receptor 4 (P32245 whole entry): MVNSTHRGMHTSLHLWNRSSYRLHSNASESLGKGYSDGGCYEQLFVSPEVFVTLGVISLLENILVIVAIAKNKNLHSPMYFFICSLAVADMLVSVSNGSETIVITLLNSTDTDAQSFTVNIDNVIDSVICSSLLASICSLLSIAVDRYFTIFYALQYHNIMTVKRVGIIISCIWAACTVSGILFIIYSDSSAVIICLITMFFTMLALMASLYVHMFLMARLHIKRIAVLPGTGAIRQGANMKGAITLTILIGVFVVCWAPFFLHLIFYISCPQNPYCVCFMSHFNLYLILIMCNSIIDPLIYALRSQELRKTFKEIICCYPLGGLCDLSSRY

[12] = cAMP pathway inhibition in counterscreen cell line – TR-FRET cAMP detection, counter-screen for MC4R biased antagonist project, dose response (AID 602305); type: functional, cell-based;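 also: U2OS cells stimulated with forskolin near its EC80 as the cAMP inducer; potency is for inhibition of forskolin-stimulated cAMP signaling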
Mu-type opioid receptor [13] = biological target: T3, Mu-type opioid receptor (Homo sapiens, UniProt P35372); experiment: (§1) Counterscreen for agonists of heterodimerization of the mu 1 (OPRM1) and delta 1 (OPRD1) opioid receptors: Luminescence-based cell-based high throughput dose response assay to identify agonists of OPRM1 homodimerization.; type: functional
T3 sequence (P35372 whole entry): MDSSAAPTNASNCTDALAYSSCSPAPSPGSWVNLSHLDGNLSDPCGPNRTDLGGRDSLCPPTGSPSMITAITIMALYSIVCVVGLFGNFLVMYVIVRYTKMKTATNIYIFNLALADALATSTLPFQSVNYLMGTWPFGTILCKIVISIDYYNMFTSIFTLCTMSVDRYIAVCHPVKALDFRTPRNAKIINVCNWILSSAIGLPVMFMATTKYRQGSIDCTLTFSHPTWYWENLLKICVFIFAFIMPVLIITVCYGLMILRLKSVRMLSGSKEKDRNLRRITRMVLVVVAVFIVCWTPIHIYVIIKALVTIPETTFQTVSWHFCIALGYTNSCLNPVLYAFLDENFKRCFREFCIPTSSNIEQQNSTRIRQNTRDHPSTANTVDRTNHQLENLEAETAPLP

[14] = biological target: Delta-type opioid receptor (Homo sapiens, UniProt P41143); experiment: as §1, with “of OPRD1” for “of OPRM1”, “homodimerization. [Related pubchem assays (depositor defined):AID504326, AID504355, AID504692, AID504904, AID504905]” for “homodimerization.”; type: functional
Sequence of Delta-type opioid receptor (P41143 whole entry): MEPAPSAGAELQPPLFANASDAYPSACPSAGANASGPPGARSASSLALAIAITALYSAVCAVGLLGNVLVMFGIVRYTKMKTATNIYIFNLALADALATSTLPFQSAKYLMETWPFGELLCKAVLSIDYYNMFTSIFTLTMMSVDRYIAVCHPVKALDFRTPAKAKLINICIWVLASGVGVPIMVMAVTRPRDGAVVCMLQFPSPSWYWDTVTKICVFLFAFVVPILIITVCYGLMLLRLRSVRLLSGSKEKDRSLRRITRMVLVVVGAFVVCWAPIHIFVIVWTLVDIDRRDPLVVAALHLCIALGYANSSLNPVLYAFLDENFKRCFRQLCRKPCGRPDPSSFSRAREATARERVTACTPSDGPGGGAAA

[15] = biological target: 5-hydroxytryptamine receptor 5A (Homo sapiens, UniProt P47898); experiment: Counterscreen for agonists of OPRM1-OPRD1 heterodimerization: luminescence-based cell-based high throughput dose response assay to identify agonists of 5-hydroxytryptamine (serotonin) 5A receptor (HTR5A). [Related pubchem assays (depositor defined):AID504326, AID504355, AID504692, AID504904, AID504905]; type: functional
Sequence of 5-hydroxytryptamine receptor 5A (P47898 whole entry): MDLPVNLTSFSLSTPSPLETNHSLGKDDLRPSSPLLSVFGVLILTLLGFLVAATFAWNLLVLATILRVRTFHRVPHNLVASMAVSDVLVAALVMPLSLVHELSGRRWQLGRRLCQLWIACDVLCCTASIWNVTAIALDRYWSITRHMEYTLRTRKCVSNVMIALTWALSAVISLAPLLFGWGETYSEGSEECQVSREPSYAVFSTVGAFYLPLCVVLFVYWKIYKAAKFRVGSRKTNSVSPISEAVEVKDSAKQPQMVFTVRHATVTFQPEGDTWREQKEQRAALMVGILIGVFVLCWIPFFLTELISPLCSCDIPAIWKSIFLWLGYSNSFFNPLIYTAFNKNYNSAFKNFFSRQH

[16] = viability loss in HeLa cells – cytotoxicity control for MgcRacGAP inhibitor project, dose response (AID 624300); type: functional
[17] = biological target: T4, Rac GTPase-activating protein 1 (Homo sapiens, UniProt Q9H0H5); experiment: blockers of MgcRacGAP-driven Rac1 GTP hydrolysis – biochemical, ADP Hunter fluorescence, primary and confirmatory, confirmation (AID 624330); type: functional
T4 sequence (Q9H0H5 whole entry): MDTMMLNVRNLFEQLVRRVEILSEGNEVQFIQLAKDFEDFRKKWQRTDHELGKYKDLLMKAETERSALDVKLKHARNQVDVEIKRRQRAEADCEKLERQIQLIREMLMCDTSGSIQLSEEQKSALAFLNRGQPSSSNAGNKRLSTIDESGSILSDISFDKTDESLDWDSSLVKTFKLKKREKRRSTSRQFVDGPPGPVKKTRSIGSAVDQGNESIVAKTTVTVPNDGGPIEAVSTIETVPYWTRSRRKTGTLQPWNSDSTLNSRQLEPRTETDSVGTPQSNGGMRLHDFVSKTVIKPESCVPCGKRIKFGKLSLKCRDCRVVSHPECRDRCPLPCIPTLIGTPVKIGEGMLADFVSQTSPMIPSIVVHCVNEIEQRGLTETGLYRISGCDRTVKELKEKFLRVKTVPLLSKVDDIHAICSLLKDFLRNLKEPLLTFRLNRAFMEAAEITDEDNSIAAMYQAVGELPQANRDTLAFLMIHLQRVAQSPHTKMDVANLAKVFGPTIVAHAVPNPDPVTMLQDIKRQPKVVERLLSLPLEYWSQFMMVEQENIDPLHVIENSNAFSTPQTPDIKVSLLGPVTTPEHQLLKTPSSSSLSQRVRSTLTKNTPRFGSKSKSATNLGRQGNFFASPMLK

[18] = biological target: 5-hydroxytryptamine receptor 2A (Mus musculus, UniProt P35363); type: functional, cell-based;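 also: CHO-K1 cells with tagged receptor and beta-arrestin; agonist potency measured as compound-induced activation of the receptor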
Sequence of 5-hydroxytryptamine receptor 2A (P35363 whole entry): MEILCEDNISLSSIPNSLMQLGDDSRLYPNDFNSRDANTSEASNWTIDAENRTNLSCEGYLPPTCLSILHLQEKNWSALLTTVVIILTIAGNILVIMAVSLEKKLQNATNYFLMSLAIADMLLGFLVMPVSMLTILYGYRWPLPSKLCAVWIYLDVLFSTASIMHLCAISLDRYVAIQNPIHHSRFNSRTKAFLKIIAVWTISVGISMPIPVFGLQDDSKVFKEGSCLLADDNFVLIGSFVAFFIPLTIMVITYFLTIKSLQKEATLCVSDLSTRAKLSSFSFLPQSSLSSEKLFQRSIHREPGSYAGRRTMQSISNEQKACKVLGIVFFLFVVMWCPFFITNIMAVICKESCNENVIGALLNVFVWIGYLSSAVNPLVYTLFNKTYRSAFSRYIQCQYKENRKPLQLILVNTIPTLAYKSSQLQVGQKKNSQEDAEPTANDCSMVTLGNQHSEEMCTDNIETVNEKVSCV

Mu-type opioid receptor [19] = biological target: T3, Mu-type opioid receptor; type: functional, cell-based
[20] = biological target: DNA repair and recombination protein RAD54-like (Homo sapiens, UniProt Q92698); experiment: RAD54 Holliday junction migration blockers – biochemical, fluorescence, cherry-picked samples, dose series, confirmation (AID 651657); type: functional
Sequence of DNA repair and recombination protein RAD54-like (Q92698 whole entry, the tested form may be a part): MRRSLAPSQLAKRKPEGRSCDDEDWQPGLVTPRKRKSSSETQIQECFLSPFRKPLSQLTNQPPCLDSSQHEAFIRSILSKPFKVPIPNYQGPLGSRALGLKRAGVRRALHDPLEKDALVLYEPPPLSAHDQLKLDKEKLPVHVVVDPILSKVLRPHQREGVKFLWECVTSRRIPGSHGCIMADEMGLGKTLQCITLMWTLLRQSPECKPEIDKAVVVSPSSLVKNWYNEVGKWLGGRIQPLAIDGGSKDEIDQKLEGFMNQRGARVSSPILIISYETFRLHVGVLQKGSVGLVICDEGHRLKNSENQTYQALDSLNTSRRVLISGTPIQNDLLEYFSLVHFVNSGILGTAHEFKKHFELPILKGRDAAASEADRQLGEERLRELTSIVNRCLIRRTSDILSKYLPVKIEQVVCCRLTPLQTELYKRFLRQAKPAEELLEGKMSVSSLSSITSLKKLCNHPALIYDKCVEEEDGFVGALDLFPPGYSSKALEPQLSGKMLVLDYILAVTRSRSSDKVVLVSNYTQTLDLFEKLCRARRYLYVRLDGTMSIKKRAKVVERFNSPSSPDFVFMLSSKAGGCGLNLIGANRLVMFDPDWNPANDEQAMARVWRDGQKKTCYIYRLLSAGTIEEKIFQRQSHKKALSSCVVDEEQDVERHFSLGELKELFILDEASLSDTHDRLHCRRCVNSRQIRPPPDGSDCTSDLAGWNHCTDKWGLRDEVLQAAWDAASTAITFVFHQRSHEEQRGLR

[21] = inhibition of ARNT PAS-B/TACC3 complex formation – biochemical, AlphaScreen, cherry-picked samples, confirmation (AID 651703); type: functional, Homo sapiens;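 also: His-tagged ARNT PAS-B domain paired with GST-TACC3 E629A dimer coactivator fragment; potency of inhibitors that break up the complex and lower AlphaScreen signal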

## Cc1ccc(S(=O)(=O)NC(=Nc2ccc([N+](=O)[O-])cc2[N+](=O)[O-])c2ccccc2)cc1
[1]
  EC50: > 53 µM (inactive)
[2]
  IC50: > 20 µM (inactive)
[3]
  IC50: 9.98 µM (active)

## c1ccc2c(NCCCN3CCOCC3)c3ccccc3nc2c1
[4]
  AC50: 3.54 µM (active)
[5]
  AC50: 31.3 µM (active)
[6]
  AC50: 1.06 µM (active)
INS1
  AC50: 2.33 µM (active)
[7]
  EC50: > 3.38 µM (active)
[8]
  AC50: 3.28 µM (active)
[9]
  AC50: 21 µM (active)
[10]
  AC50: 3.16 µM (active)
[11]
  EC50: > 91.2 µM (inactive)

## CC(NC(=O)COC(=O)CNS(=O)(=O)/C=C/c1ccccc1)c1ccccc1 (stereo not given)
Melanocortin receptor 4
  IC50: > 64.6 µM (inactive)
[12]
  IC50: > 64.6 µM (inactive)

## Cc1ccc2c(Cl)c(Cc3ccccc3)c(=S)[nH]c2n1
Mu-type opioid receptor [13]
  EC50: > 92.5 µM (inactive)
[14]
  EC50: > 92.5 µM (inactive)
[15]
  EC50: > 92.5 µM (inactive)

## COc1ccc(C(CNC(=O)c2cc3ccccc3cc2O)N2CCOCC2)cc1 (stereo not given)
[16]
  CC50: 100 µM (active)
[17]
  IC50: 77 µM (active)

## O=C(CN1CCCCC1)Nc1c2c(nc3ccccc13)N(c1ccccc1)CC2
[7]
  EC50: > 91.2 µM (inactive)
[11]
  EC50: > 91.2 µM (inactive)

## CC(C)[C@H](NC(=O)c1ccc(C(C)(C)C)cc1)C(=O)N1CCN(Cc2ccc3c(c2)OCO3)CC1
[18]
  EC50: 4.33 µM (active)
Mu-type opioid receptor [19]
  EC50: 92.5 µM (inactive)

## O=C(Nc1cccc(Br)c1)c1cc(S(=O)(=O)N2CCOCC2)cs1
[20]
  AC50: 72.5 µM (active)

## CCOC(=O)C(NC(=O)CC(C)C)(Nc1sc(C)c(CC)c1C#N)C(F)(F)F (stereo not given)
[1]
  EC50: > 53 µM (inactive)
[2]
  IC50: > 20 µM (inactive)
[3]
  IC50: 13.6 µM (active)

## COc1ccc(S(=O)(=O)NCC(c2ccc3c(c2)OCO3)N2CCN(c3ccccc3)CC2)cc1 (stereo not given)
[18]
  EC50: 17.2 µM (inactive)
Mu-type opioid receptor [19]
  EC50: 92.5 µM (inactive)

## Cc1nn2c(nc1=O)NNC2(C)C(C)(C)C (stereo not given)
[21]
  AC50: 130 µM (active)
